Usually pIC50 stands for the IC50 on a negative log10 scale, so that one unit is a factor of ten.

pIC50: −log10 of the molar value. “And” between values parts separate entries of the source, which are not always exact repeats. Equal entries are not always repeated. Structures can show the parent of a compound that is named as a salt. Where two headings read alike, the source gives them in different places.

The record followed here is patent EP1266900A1, “Carbamates of rapamycin” (Wyeth, priority 1992, dated 1994).

Test [1] concerns cells from the thymus of normal BALB/c mice. The experiment in a line: comitogen-induced thymocyte proliferation procedure (LAF). Format: cell-based. The conditions noted are these: for pIC50: thymocytes cultured for 72 hours with PHA and IL-1, tritiated thymidine incorporation, read-out: LAF IC50; for LAF (ratio): ratio compared with rapamycin, greater than 1 = inhibited thymocyte proliferation to a greater extent than rapamycin. As to the method:
(§1) Immunosuppressive activity for representative compounds of this invention was evaluated in an in vitro standard pharmacological test procedure to measure lymphocyte proliferation (LAF) and in an in vivo standard pharmacological test procedure which evaluated the survival time of a pinch skin graft.
The comitogen-induced thymocyte proliferation procedure (LAF) was used as an in vitro measure of the immunosuppressive effects of representative compounds. Briefly, cells from the thymus of normal BALB/c mice are cultured for 72 hours with PHA and IL-1 and pulsed with tritiated thymidine during the last six hours. Cells are cultured with and without various concentrations of rapamycin, cyclosporin A, or test compound. Cells are harvested and incorporated radioactivity is determined. Inhibition of lymphoproliferation is assessed as percent change in counts per minute from non-drug treated controls. For each compound evaluated, rapamycin was also evaluated for the purpose of comparison. An IC50 was obtained for each test compound as well as for rapamycin. […] A positive ratio indicates immunosuppressive activity. […] Calculation of the ratio is shown below. (()^3 H-control thymus cells -)/(()^3 H-control thymus cells -)(()^3 H-rapamycin-treated thymus cells)/(()^3 H-test compound-treated cells) [formula]
In general terms: Dividing cells build labelled thymidine or BrdU into new DNA.

The next test relates to pinch skin graft. Put plainly: pinch skin graft survival time, in vivo. Details: species or system male C3H(H-2K) recipients. The conditions noted are these: dose of 4 mg/kg, intraperitoneally or orally, untreated grafts usually rejected within 6-7 days. As to the method: as §1
Representative compounds of this invention were also evaluated in an in vivo test procedure designed to determine the survival time of pinch skin graft from male BAB/c donors transplanted to male C3H(H-2K) recipients. The method is adapted from Billingham R.E. and Medawar P.B., J. Exp. Biol. 28:385-402, (1951). Briefly, a pinch skin graft from the donor was grafted on the dorsum of the recipient as a allograft, and an isograft was used as control in the same region. The recipients were treated with either varying concentrations of test compounds intraperitoneally or orally. Rapamycin was used as a test control. Untreated recipients serve as rejection control. The graft was monitored daily and observations were recorded until the graft became dry and formed a blackened scab. This was considered as the rejection day. The mean graft survival time (number of days ± S.D.) of the drug treatment group was compared with the control group. […] Results are expressed as the mean survival time in days. Untreated (control) pinch skin grafts are usually rejected within 6-7 days. The results shown in Table 1 are based on a dose of 4 mg/kg of test compound. A survival time of 12.0 ± 1.7 days was obtained for rapamycin at 4 mg/kg.

Turning to `CO[C@H]1C[C@@H]2CC[C@@H](C)[C@@](O)(O2)C(=O)C(=O)N2CCCC[C@H]2C(=O)O[C@H]([C@H](C)C[C@@H]2CC[C@@H](OC(N)=O)[C@H](OC)C2)CC(=O)[C@H](C)/C=C(\C)[C@@H](O)[C@@H](OC)C(=O)[C@H](C)C[C@H](C)/C=C/C=C/C=C/1C` [Example 1, Rapamycin 42-ester with carbamic acid], the negative-log IC50 (pIC50) in test [1] (Mus musculus, Thymocyte, 72 h) is 8.77. In test [1], the “LAF (ratio)” value came out at 1.29. Besides, the “Skin Graft (days ± SD), mean survival time” value (shortened to “Skin Graft (days ± SD)”) with pinch skin graft worked out at 11.7 ± 0.5 days.
Consider `CO[C@H]1C[C@@H]2CC[C@@H](C)[C@@](O)(O2)C(=O)C(=O)N2CCCC[C@H]2C(=O)O[C@H]([C@H](C)C[C@@H]2CC[C@@H](OC(=O)NCCO)[C@H](OC)C2)CC(=O)[C@H](C)/C=C(\C)[C@@H](O)[C@@H](OC)C(=O)[C@H](C)C[C@H](C)/C=C/C=C/C=C/1C` [Example 2, Rapamycin 42-ester with 2-hydroxyethyl carbamic acid], for which, in test [1], the “LAF (ratio)” value was 1.22 and 1.09. Moreover, the “Skin Graft (days ± SD)” value in the test with pinch skin graft is 10.3 ± 0.8 days.
As to `CO[C@H]1C[C@@H]2CC[C@@H](C)[C@@](O)(O2)C(=O)C(=O)N2CCCC[C@H]2C(=O)O[C@H]([C@H](C)C[C@@H]2CC[C@@H](OC(=O)NCCN(C)C)[C@H](OC)C2)CC(=O)[C@H](C)/C=C(\C)[C@@H](O)[C@@H](OC)C(=O)[C@H](C)C[C@H](C)/C=C/C=C/C=C/1C` [Example 3, Rapamycin 42-ester with 2-(dimethylamino)ethyl carbamic acid], the pIC50 in test [1] (Mus musculus, Thymocyte, 72 h) was 8.19. For the same compound, the “LAF (ratio)” value in test [1] was 0.34.
Regarding `CO[C@H]1C[C@@H]2CC[C@@H](C)[C@@](O)(O2)C(=O)C(=O)N2CCCC[C@H]2C(=O)O[C@H]([C@H](C)C[C@@H]2CC[C@@H](OC(=O)NN)[C@H](OC)C2)CC(=O)[C@H](C)/C=C(\C)[C@@H](O)[C@@H](OC)C(=O)[C@H](C)C[C@H](C)/C=C/C=C/C=C/1C` [Example 4, Rapamycin 42-ester with aminocarbamic acid], the pIC50 in test [1] (Mus musculus, Thymocyte, 72 h) is 8.00. Also, the “LAF (ratio)” value in test [1] is reported as 0.45. Besides, the “Skin Graft (days ± SD)” value in the test on pinch skin graft stood at 9.8 ± 0.8 days.
On to `CO[C@H]1C[C@@H]2CC[C@@H](C)[C@@](O)(O2)C(=O)C(=O)N2CCCC[C@H]2C(=O)O[C@H]([C@H](C)C[C@@H]2CC[C@@H](OC(=O)NO)[C@H](OC)C2)CC(=O)[C@H](C)/C=C(\C)[C@@H](O)[C@@H](OC)C(=O)[C@H](C)C[C@H](C)/C=C/C=C/C=C/1C` [Example 5, Rapamycin 42-ester with hydroxycarbamic acid], for which, in test [1] (Mus musculus, Thymocyte, 72 h), the pIC50 is 8.68. The “LAF (ratio)” value in test [1] is on record as 1.19.
For `CO[C@H]1C[C@@H]2CC[C@@H](C)[C@@](O)(O2)C(=O)C(=O)N2CCCC[C@H]2C(=O)O[C@H]([C@H](C)C[C@@H]2CC[C@@H](OC(=O)NCCc3ccccn3)[C@H](OC)C2)CC(=O)[C@H](C)/C=C(\C)[C@@H](O)[C@@H](OC)C(=O)[C@H](C)C[C@H](C)/C=C/C=C/C=C/1C` [Example 6, Rapamycin 42-ester with 2-(pyridin-2-yl)-ethyl carbamic acid], in test [1], the “LAF (ratio)” value was 5.1 and the pIC50 was 9.10. The “Skin Graft (days ± SD)” value in the test on pinch skin graft (4 mg/kg) is 11.40 ± 0.6 days.
For `CO[C@H]1C[C@@H]2CC[C@@H](C)[C@@](O)(O2)C(=O)C(=O)N2CCCC[C@H]2C(=O)O[C@H]([C@H](C)C[C@@H]2CC[C@@H](OC(=O)NCCc3ccccn3)[C@H](OC)C2)CC(=O)[C@H](C)/C=C(\C)[C@@H](O)[C@@H](OC)C(=O)[C@H](C)C[C@H](C)/C=C/C=C/C=C/1C` [Example 7, Rapamycin 42-ester with 2-(pyridin-2-yl)-ethyl carbamic acid hydrochloride salt], in test [1] (hydrochloride salt), the “LAF (ratio)” value came to 2.3 and the pIC50 was 8.92. Further, the “Skin Graft (days ± SD)” value in the test with pinch skin graft (hydrochloride salt, 4 mg/kg) came out at 10.33 ± 0.5 days.
In the case of `CO[C@H]1C[C@@H]2CC[C@@H](C)[C@@](O)(O2)C(=O)C(=O)N2CCCC[C@H]2C(=O)O[C@H]([C@H](C)C[C@@H]2CC[C@@H](OC(=O)NCCc3ccccn3)[C@H](OC)C2)CC(=O)[C@H](C)/C=C(\C)[C@@H](O)[C@@H](OC)C(=O)[C@H](C)C[C@H](C)/C=C/C=C/C=C/1C` [Example 8, Rapamycin 42-ester with 2-(pyridin-2-yl)ethylcarbamic acid methanesulfonate salt], in test [1] (methanesulfonate salt), the “LAF (ratio)” value was found to be 4.4 and the pIC50 was 9.70.
Turning to `CO[C@H]1C[C@@H]2CC[C@@H](C)[C@@](O)(O2)C(=O)C(=O)N2CCCC[C@H]2C(=O)O[C@H]([C@H](C)C[C@@H]2CC[C@@H](OC(=O)NCc3ccccn3)[C@H](OC)C2)CC(=O)[C@H](C)/C=C(\C)[C@@H](O)[C@@H](OC)C(=O)[C@H](C)C[C@H](C)/C=C/C=C/C=C/1C` [Example 10, Rapamycin 42-ester with 2-pyridinylmethyl carbamic acid], the pIC50 in test [1] (Mus musculus, Thymocyte, 72 h) is 10.00. Also, the “LAF (ratio)” value in test [1] is recorded as 3.8. Besides, the “Skin Graft (days ± SD)” value with pinch skin graft is on record as 10.17 ± 1.0 days.
For the compound `CO[C@H]1C[C@@H]2CC[C@@H](C)[C@@](O)(O2)C(=O)C(=O)N2CCCC[C@H]2C(=O)O[C@H]([C@H](C)C[C@@H]2CC[C@@H](OC(=O)NCc3cccnc3)[C@H](OC)C2)CC(=O)[C@H](C)/C=C(\C)[C@@H](O)[C@@H](OC)C(=O)[C@H](C)C[C@H](C)/C=C/C=C/C=C/1C` [Example 12, Rapamycin 42-ester with 3-pyridinylmethyl carbamic acid], the pIC50 in test [1] (Mus musculus, Thymocyte, 72 h) is 8.96. In addition, the “LAF (ratio)” value in test [1] is on record as 3.8. Moreover, in the test on pinch skin graft (4 mg/kg), the “Skin Graft (days ± SD)” value is 9.80 ± 1.1 days.
Consider `CO[C@H]1C[C@@H]2CC[C@@H](C)[C@@](O)(O2)C(=O)C(=O)N2CCCC[C@H]2C(=O)O[C@H]([C@H](C)C[C@@H]2CC[C@@H](OC(=O)N3CCN(CCCO)CC3)[C@H](OC)C2)CC(=O)[C@H](C)/C=C(\C)[C@@H](O)[C@@H](OC)C(=O)[C@H](C)C[C@H](C)/C=C/C=C/C=C/1C` [Example 23, Rapamycin 42-ester with 4-(3-hydroxypropyl)piperazine-1-carboxylic acid], for which the pIC50 in test [1] (Mus musculus, Thymocyte, 72 h) is 8.47. Moreover, in test [1], the “LAF (ratio)” value is 1.4.
The like results for `CO[C@H]1C[C@@H]2CC[C@@H](C)[C@@](O)(O2)C(=O)C(=O)N2CCCC[C@H]2C(=O)O[C@H]([C@H](C)C[C@@H]2CC[C@@H](OC(=O)NCCCN(CCO)CCO)[C@H](OC)C2)CC(=O)[C@H](C)/C=C(\C)[C@@H](O)[C@@H](OC)C(=O)[C@H](C)C[C@H](C)/C=C/C=C/C=C/1C` [Example 24, Rapamycin 42-ester with [3-[bis(2-hydroxyethyl)amino]propyl]carbamic acid] were, in that order, 7.40 and 0.1.
Turning to `CO[C@H]1C[C@@H]2CC[C@@H](C)[C@@](O)(O2)C(=O)C(=O)N2CCCC[C@H]2C(=O)O[C@H]([C@H](C)C[C@@H]2CC[C@@H](OC(=O)N3CCOCC3)[C@H](OC)C2)CC(=O)[C@H](C)/C=C(\C)[C@@H](O)[C@@H](OC)C(=O)[C@H](C)C[C@H](C)/C=C/C=C/C=C/1C` [Example 26, Rapamycin 42-ester with morpholine-4-carboxylic acid], the pIC50 in test [1] (Mus musculus, Thymocyte, 72 h) is 9.70. For the same compound, the “LAF (ratio)” value in test [1] was determined as 6.2.
As for `CO[C@H]1C[C@@H]2CC[C@@H](C)[C@@](O)(O2)C(=O)C(=O)N2CCCC[C@H]2C(=O)O[C@H]([C@H](C)C[C@@H]2CC[C@@H](OC(=O)N3CCN(C)CC3)[C@H](OC)C2)CC(=O)[C@H](C)/C=C(\C)[C@@H](O)[C@@H](OC)C(=O)[C@H](C)C[C@H](C)/C=C/C=C/C=C/1C` [Example 27, Rapamycin 42-ester with 4-methylpiperazine-1-carboxylic acid], the pIC50 in test [1] (Mus musculus, Thymocyte, 72 h) is 8.92. In addition, in test [1], the “LAF (ratio)” value is given as 1.2.
The like results for `CO[C@H]1C[C@@H]2CC[C@@H](C)[C@@](O)(O2)C(=O)C(=O)N2CCCC[C@H]2C(=O)O[C@H]([C@H](C)C[C@@H]2CC[C@@H](OC(=O)N3CCNCC3)[C@H](OC)C2)CC(=O)[C@H](C)/C=C(\C)[C@@H](O)[C@@H](OC)C(=O)[C@H](C)C[C@H](C)/C=C/C=C/C=C/1C` [Example 28, Rapamycin 42-ester with piperazine-1-carboxylic acid] were, in that order, 8.38 and 1.1.
